A short description of the experiment: Slope was measured from percentage of specific binding with time.
The molecule `CCCC(=O)OC.CO/C(O)=C1/C(C)=NCCC1c1ccccc1Cl` (centres undefined) yielded a Slope of 1.4.

For the molecule `CCCC(=O)OC.CO/C(O)=C1/C(C)=NCCC1c1ccccc1F` (centres undefined), the Slope was 1.6. For `CCCC(=O)OC.CO/C(O)=C1/C(C)=NCCC1c1ccccc1I` (centres undefined) the value was 1.2. For `CCCC(=O)OC.CO/C(O)=C1/C(C)=NCCC1c1ccccc1Br` (centres undefined) the value was 1.3.

These data come from ChEMBL document CHEMBL1125184, “Active conformation of 1,4-dihydropyridine calcium entry blockers. Effect of size of 2-aryl substituent on rotameric equilibria and receptor binding” (J Med Chem, 1991).
